Experimental findings from ChEMBL document CHEMBL4229400, “Covalent inhibitors of nicotinamide N-methyltransferase (NNMT) provide evidence for target engagement challenges in situ” (Bioorg Med Chem Lett, 2018) are described below.

Test [1] concerns the target T1, Nicotinamide N-methyltransferase (Homo sapiens) (UniProt P40261).
T1 sequence (whole entry): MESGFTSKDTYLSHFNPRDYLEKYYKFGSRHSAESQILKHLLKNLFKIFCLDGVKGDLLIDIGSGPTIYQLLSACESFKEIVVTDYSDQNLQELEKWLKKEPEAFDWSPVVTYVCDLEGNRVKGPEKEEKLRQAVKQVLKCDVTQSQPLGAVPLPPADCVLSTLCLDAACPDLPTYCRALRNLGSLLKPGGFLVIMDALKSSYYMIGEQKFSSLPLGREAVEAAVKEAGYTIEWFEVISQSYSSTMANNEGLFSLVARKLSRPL
Kind of test: Inhibition of SAH-rhodamine binding to NNMT in human 786-O cell soluble proteomic lysate at 2 uM preincubated for 1 hr followed by SAH-rhodamine addition measured after 5 mins by Gel-based ABPP analysis.

Test [2] deals with T1, Nicotinamide N-methyltransferase (Homo sapiens). Kind of test: (§1) Inhibition of SAH-rhodamine binding to NNMT in human 786-O cell soluble proteomic lysate preincubated for 1 hr followed by SAH-rhodamine addition measured after 5 mins by Gel-based ABPP analysis.
The target of test [3] is T2, Nicotinamide N-methyltransferase (Homo sapiens, UniProt P40261).
T2 sequence (P40261 whole entry): T1 sequence (whole entry)
The description is as §1.

Test [4] deals with T1, Nicotinamide N-methyltransferase (Homo sapiens). Kind of test: (§2) Inhibition of NNMT in human 786-O cell lysate using d4-nicotinamide as substrate preincubated for 1 hr followed by substrate and SAM addition measured after 15 to 30 mins by LC-MS analysis.
The target of test [5] is T2, Nicotinamide N-methyltransferase. The description is as §2.
Test [6] has as its system T3, Nicotinamide N-methyltransferase (Homo sapiens), P40261 [C165A].
T3 sequence (whole entry): T1 sequence (whole entry) with C165A
Kind of test: Inhibition of NNMT C165A mutant in human 786-O cell lysate using d4-nicotinamide as substrate preincubated for 1 hr followed by substrate and SAM addition measured after 15 to 30 mins by LC-MS analysis.

Test [7] addresses T1, Nicotinamide N-methyltransferase (Homo sapiens). The test can be described thus: Inhibition of SAH-rhodamine binding to NNMT in human 786-O cell soluble proteomic lysate assessed as ratio of observed rate constant to test compound concentration preincubated for 10 to 40 mins followed by SAH-rhodamine addition measured after 5 mins by Gel-based ABPP analysis.
Test [8] has the same target. Kind of test: Binding affinity to NNMT C165 residue in human 786-O cell lysate at 5 uM incubated for 4 hrs followed by cell lysis by IA-alkyne probe based isoTOP-ABPP analysis.
The target is the same in test [9]. The test can be described thus: Binding affinity to NNMT C165 residue in human 786-O cell soluble proteomic lysate at 1 to 5 uM incubated for 1 hr followed by cell lysis by IA-alkyne probe based isoTOP-ABPP analysis.
Test [10] has the same target. Kind of test: Binding affinity to NNMT C165 residue in human 786-O cell soluble proteomic lysate at 5 uM incubated for 1 hr followed by cell lysis by IA-alkyne probe based isoTOP-ABPP analysis relative to control.
The target in test [11] is T4, Heme oxygenase 2 (Homo sapiens) (UniProt P30519).
T4 sequence (whole entry): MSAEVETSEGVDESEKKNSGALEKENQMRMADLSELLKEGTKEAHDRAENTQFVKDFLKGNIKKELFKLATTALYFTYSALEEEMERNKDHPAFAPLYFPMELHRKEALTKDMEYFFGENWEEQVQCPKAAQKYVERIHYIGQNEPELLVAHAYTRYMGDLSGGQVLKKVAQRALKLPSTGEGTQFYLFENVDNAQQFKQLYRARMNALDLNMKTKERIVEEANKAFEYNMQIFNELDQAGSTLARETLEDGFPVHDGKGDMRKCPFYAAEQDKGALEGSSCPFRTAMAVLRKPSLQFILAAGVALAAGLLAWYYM
Kind of test: Binding affinity to HMOX2 cysteine residue in human 786-O cell soluble proteomic lysate at 5 uM incubated for 1 hr followed by cell lysis by IA-alkyne probe based isoTOP-ABPP analysis.

Test [12] deals with T1, Nicotinamide N-methyltransferase (Homo sapiens). The test can be described thus: Binding affinity to NNMT C115 residue in human 786-O cell soluble proteomic lysate at 5 uM incubated for 1 hr followed by cell lysis by IA-alkyne probe based isoTOP-ABPP analysis relative to control.
Test [13] has the same target. The test can be described thus: Binding affinity to NNMT C75 residue in human 786-O cell soluble proteomic lysate at 5 uM incubated for 1 hr followed by cell lysis by IA-alkyne probe based isoTOP-ABPP analysis relative to control.
For test [14] the target is unchanged. Kind of test: Binding affinity to NNMT C50 residue in human 786-O cell soluble proteomic lysate at 5 uM incubated for 1 hr followed by cell lysis by IA-alkyne probe based isoTOP-ABPP analysis relative to control.
Test [15] has as its target T5, Glutathione S-transferase omega-1 (Homo sapiens) (UniProt P78417).
T5 sequence (whole entry): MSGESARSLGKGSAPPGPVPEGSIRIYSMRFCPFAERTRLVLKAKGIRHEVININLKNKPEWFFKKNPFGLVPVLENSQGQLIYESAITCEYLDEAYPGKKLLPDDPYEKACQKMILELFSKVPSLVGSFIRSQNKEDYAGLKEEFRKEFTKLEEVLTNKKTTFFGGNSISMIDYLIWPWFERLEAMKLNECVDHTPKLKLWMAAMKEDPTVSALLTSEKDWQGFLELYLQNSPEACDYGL
The test can be described thus: Binding affinity to GSTO1 cysteine residue in human 786-O cell soluble proteomic lysate at 5 uM incubated for 1 hr followed by cell lysis by IA-alkyne probe based isoTOP-ABPP analysis.

Test [16] deals with T6, Cytoskeleton-associated protein 4 (Homo sapiens) (UniProt Q07065).
T6 sequence (whole entry): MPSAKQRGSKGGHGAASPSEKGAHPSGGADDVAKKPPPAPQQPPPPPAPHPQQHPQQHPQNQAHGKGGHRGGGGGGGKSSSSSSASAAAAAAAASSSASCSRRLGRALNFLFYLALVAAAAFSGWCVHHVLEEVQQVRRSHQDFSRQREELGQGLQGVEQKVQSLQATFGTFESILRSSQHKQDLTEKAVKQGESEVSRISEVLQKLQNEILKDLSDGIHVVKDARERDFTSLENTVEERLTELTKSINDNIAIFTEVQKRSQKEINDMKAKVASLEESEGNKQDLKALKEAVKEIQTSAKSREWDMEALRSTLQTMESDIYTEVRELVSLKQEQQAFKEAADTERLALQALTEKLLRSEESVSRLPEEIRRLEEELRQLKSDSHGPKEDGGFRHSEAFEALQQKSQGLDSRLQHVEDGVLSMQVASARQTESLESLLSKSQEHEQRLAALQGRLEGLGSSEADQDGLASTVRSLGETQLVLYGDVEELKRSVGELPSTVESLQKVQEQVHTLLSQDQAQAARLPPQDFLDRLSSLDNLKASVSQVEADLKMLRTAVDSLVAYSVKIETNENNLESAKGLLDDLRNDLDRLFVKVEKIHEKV
The test can be described thus: Binding affinity to CKAP4 cysteine residue in human 786-O cell soluble proteomic lysate at 5 uM incubated for 1 hr followed by cell lysis by IA-alkyne probe based isoTOP-ABPP analysis.

Positions count from the first letter of the chain named. Active and inactive are the calls of the source. No cut-off for these calls is given here.

As a reminder, the IC50 is the midpoint of a concentration-inhibition curve.

For `CC(C)CCN(C(=O)CCl)c1cc(C(=O)Nc2cccnc2Cl)cc(C(F)(F)F)c1`, the inhibition result in test [1] was “Active”. The inhibition result in test [2] and in [4] was “Dose-dependent effect” in each case. In addition, the IC50 in test [3] turned out to be 410 nM; in test [5], 200 nM. For the same compound, in test [6], the inhibition result was “inactive”. In addition, in test [7], the Ratio turned out to be 200 M⁻¹ s⁻¹. Moreover, in test [8], the outcome was inactive. For the same compound, the result in test [9], in [11], in test [15] and in test [16] was Active. Also, the fold change (FC) in test [10] is 20; in test [12] it was 1; in test [13] it was 1.3; in test [14], 1.3.
